Bridge positions count the residues as written; N and C are the ends. Square brackets hold non-standard residues; d marks the D form. Peptide text beside a SMILES is read from it. Hyp = O=C(O)[C@@H]1C[C@@H](O)CN1; Cit = NC(=O)NCCC[C@H](N)C(=O)O
Assays:
[1] = Physical stability of peptide analogues (Thioflavin T fibrillation); format: physicochemical; conditions: maximum ThT signal normalized between hAMY maximum and buffer background; 40° C., shaking, four days; pH 7 per table title
Outline: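 1 h in 50 mM NaOAc pH 4 / 50 mM NaPi pH 7; + ThT 4 μM final; 40 °C, 700 rpm linear shake 5 min pre-read; ex 450, em 480 nm q10 min × 4 d; LOESS smoothing; max signal normalised to hAMY max vs buffer blank.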

hAMY3 receptor = biological target: T1, hAMY3 receptor (Homo sapiens, UniProt O60896+P30988); assay: cAMP assay for in vitro receptor activation, hAMY3-R; format: cell-based; conditions: cAMP assay, hAMY3 receptor; read-out: hAMY3R EC50
T1 sequence (P30988 25-474): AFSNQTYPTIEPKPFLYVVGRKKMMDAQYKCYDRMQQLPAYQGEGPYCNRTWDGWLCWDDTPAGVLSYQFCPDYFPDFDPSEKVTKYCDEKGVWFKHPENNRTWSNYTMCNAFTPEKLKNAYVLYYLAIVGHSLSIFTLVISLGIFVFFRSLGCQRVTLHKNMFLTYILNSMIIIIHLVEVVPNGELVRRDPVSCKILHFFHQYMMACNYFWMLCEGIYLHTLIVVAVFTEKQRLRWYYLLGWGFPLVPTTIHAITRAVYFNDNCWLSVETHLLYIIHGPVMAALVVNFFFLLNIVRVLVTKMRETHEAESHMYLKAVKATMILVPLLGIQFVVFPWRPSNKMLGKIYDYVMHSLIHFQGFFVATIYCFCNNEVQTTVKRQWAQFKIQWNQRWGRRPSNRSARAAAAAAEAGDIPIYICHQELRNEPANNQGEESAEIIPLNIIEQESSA
T1 sequence (O60896 24-148 partner): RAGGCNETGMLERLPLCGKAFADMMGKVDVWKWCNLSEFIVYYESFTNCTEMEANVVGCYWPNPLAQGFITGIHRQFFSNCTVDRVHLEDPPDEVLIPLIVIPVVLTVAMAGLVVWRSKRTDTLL
Outline: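 Thawed cells from a sub-cloned monoclonal hAMY3-overexpressing line are plated in DPBS containing 0.05% casein and 0.5 mM IBMX. Test compounds are added immediately at graded doses for 30 min at room temperature. Reagents for cAMP detection are then added, and TR-FRET is recorded after one hour.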

Structure (SMILES) | Max ThT signal (%) [1] [%] | EC50 (hAMY3 receptor) [nM]
CC[C@H](C)[C@H](NC(=O)[C@H](CCC(N)=O)NC(=O)[C@H](Cc1c[nH]cn1)NC(=O)[C@H](C)NC(=O)[C@H](CC(C)C)NC(=O)[C@H](CCCNC(=N)N)NC(=O)[C@H](CCC(N)=O)NC(=O)[C@@H](NC(=O)[C@@H](NC(=O)[C@@H]1CSSC[C@H](NC(=O)[C@@H](N)CCCCN)C(=O)N[C@@H](CCCNC(=N)N)C(=O)N[C@@H](Cc2ccccc2)C(=O)NCC(=O)N[C@@H]([C@@H](C)O)C(=O)N1)[C@@H](C)O)C(C)C)C(=O)N[C@@H](Cc1ccc(O)cc1)C(=O)N[C@@H](CCC(N)=O)C(=O)N[C@@H](Cc1ccccc1)C(=O)N[C@H](C(=O)N[C@@H](CC(=O)O)C(=O)N[C@@H](CCCCN)C(=O)N[C@@H](CC(=O)O)C(=O)N[C@@H](CCCCN)C(=O)N[C@@H](CC(=O)O)C(=O)N[C@@H](CC(N)=O)C(=O)N[C@H](C(=O)N[C@@H](C)C(=O)N1CCC[C@H]1C(=O)N[C@@H](CCCNC(=N)N)C(=O)N[C@@H](CO)C(=O)N[C@@H](CCCCN)C(=O)N[C@H](C(=O)N[C@@H](CO)C(=O)N1CCC[C@H]1C(=O)N[C@@H](CCC(N)=O)C(=O)N[C@H](C(=O)N1C[C@H](O)C[C@H]1C(N)=O)[C@@H](C)O)[C@@H](C)CC)C(C)C)[C@@H](C)O [compound 205] (H-KCRFGTCTVQRLAHQIYQFTDKDKDNVAPRSKISPQT[Hyp]-NH2; disulfide 2-7; N-terminus assumed) | 7.800 | 0.13
CC[C@H](C)[C@H](NC(=O)[C@H](CCC(N)=O)NC(=O)[C@H](Cc1c[nH]cn1)NC(=O)[C@H](C)NC(=O)[C@H](CC(C)C)NC(=O)[C@H](CCCNC(=N)N)NC(=O)[C@H](CCC(N)=O)NC(=O)[C@@H](NC(=O)[C@@H](NC(=O)[C@@H]1CSSC[C@H](NC(=O)CN)C(=O)N[C@@H](CCCNC(=N)N)C(=O)N[C@@H]([C@@H](C)O)C(=O)NCC(=O)N[C@@H]([C@@H](C)O)C(=O)N1)[C@@H](C)O)C(C)C)C(=O)N[C@@H](Cc1ccc(O)cc1)C(=O)N[C@@H](CCC(N)=O)C(=O)N[C@@H](Cc1ccccc1)C(=O)N[C@H](C(=O)N[C@@H](CC(=O)O)C(=O)N[C@@H](CCCCN)C(=O)N[C@@H](CC(=O)O)C(=O)N[C@@H](CCCCN)C(=O)N[C@@H](CC(=O)O)C(=O)N[C@@H](CC(N)=O)C(=O)N[C@H](C(=O)N[C@@H](C)C(=O)N1CCC[C@H]1C(=O)N[C@@H](CCCNC(=N)N)C(=O)N[C@@H](CO)C(=O)N[C@@H](CC(N)=O)C(=O)N[C@H](C(=O)N[C@@H](CO)C(=O)N1CCC[C@H]1C(=O)N[C@@H](CCC(N)=O)C(=O)NCC(=O)N1C[C@H](O)C[C@H]1C(N)=O)C(C)C)C(C)C)[C@@H](C)O [compound 224] (H-GCRTGTCTVQRLAHQIYQFTDKDKDNVAPRSNVSPQG[Hyp]-NH2; disulfide 2-7; N-terminus assumed) | 2.000 | 0.186

More lines, now with the values ahead:

Max ThT signal (%) [1] [%] | EC50 (hAMY3 receptor) [nM] | Structure (SMILES)
2.700 | 0.157 | CC[C@H](C)[C@H](NC(=O)[C@H](CCC(N)=O)NC(=O)[C@H](Cc1c[nH]cn1)NC(=O)[C@H](C)NC(=O)[C@H](CC(C)C)NC(=O)[C@H](CCCNC(=N)N)NC(=O)[C@H](CCC(N)=O)NC(=O)[C@@H](NC(=O)[C@@H](NC(=O)[C@@H]1CSSC[C@H](NC(=O)CN)C(=O)N[C@@H](CCCNC(=N)N)C(=O)N[C@@H]([C@@H](C)O)C(=O)NCC(=O)N[C@@H]([C@@H](C)O)C(=O)N1)[C@@H](C)O)C(C)C)C(=O)N[C@@H](Cc1ccc(O)cc1)C(=O)N[C@@H](CCC(N)=O)C(=O)N[C@@H](Cc1ccccc1)C(=O)N[C@H](C(=O)N[C@@H](CC(=O)O)C(=O)N[C@@H](CCCCN)C(=O)N[C@@H](CC(=O)O)C(=O)N[C@@H](CCCCN)C(=O)N[C@@H](CC(=O)O)C(=O)N[C@@H](CC(N)=O)C(=O)N[C@H](C(=O)N[C@@H](C)C(=O)N1CCC[C@H]1C(=O)N[C@@H](CCCNC(=N)N)C(=O)N[C@H](C(=O)N[C@@H](CC(N)=O)C(=O)N[C@H](C(=O)N[C@@H](CO)C(=O)N1CCC[C@H]1C(=O)N[C@@H](CCC(N)=O)C(=O)NCC(=O)N1C[C@H](O)C[C@H]1C(N)=O)[C@@H](C)CC)[C@@H](C)O)C(C)C)[C@@H](C)O [compound 214] (H-GCRTGTCTVQRLAHQIYQFTDKDKDNVAPRTNISPQG[Hyp]-NH2; disulfide 2-7; N-terminus assumed)
8.550 | 0.018 | CC[C@H](C)[C@H](NC(=O)[C@H](CCC(N)=O)NC(=O)[C@H](C)NC(=O)[C@H](C)NC(=O)[C@H](CC(C)C)NC(=O)[C@H](CCCNC(N)=O)NC(=O)[C@H](CCC(N)=O)NC(=O)[C@@H](NC(=O)[C@@H](NC(=O)[C@@H]1CSSC[C@H](NC(=O)[C@@H](N)CCCCN)C(=O)N[C@@H](CC(N)=O)C(=O)N[C@@H]([C@@H](C)O)C(=O)N[C@@H](C)C(=O)N[C@@H]([C@@H](C)O)C(=O)N1)[C@@H](C)O)C(C)C)C(=O)N[C@@H](Cc1ccc(O)cc1)C(=O)N[C@@H](CCC(N)=O)C(=O)N[C@@H](Cc1ccccc1)C(=O)N[C@H](C(=O)N[C@@H](CC(=O)O)C(=O)N[C@@H](CCCCN)C(=O)N[C@@H](CC(=O)O)C(=O)N[C@@H](CCCCN)C(=O)N[C@@H](CC(=O)O)C(=O)N[C@@H](CC(N)=O)C(=O)N[C@H](C(=O)N[C@@H](C)C(=O)N1CCC[C@H]1C(=O)N1CCC[C@H]1C(=O)N[C@H](C(=O)N[C@@H](CC(N)=O)C(=O)N[C@H](C(=O)NCC(=O)N[C@@H](CO)C(=O)N[C@@H](CC(N)=O)C(=O)NCC(=O)N1C[C@H](O)C[C@H]1C(N)=O)C(C)C)[C@@H](C)O)C(C)C)[C@@H](C)O [compound 243] (H-KCNTATCTVQ[Cit]LAAQIYQFTDKDKDNVAPPTNVGSNG[Hyp]-NH2; disulfide 2-7; N-terminus assumed)
13.600 | 0.027 | CC[C@H](C)[C@H](NC(=O)[C@H](CCC(N)=O)NC(=O)[C@H](Cc1c[nH]cn1)NC(=O)[C@H](C)NC(=O)[C@H](CC(C)C)NC(=O)[C@H](CCCNC(N)=O)NC(=O)[C@H](CCC(N)=O)NC(=O)[C@@H](NC(=O)[C@@H](NC(=O)[C@@H]1CSSC[C@H](NC(=O)[C@@H](N)CCCCN)C(=O)N[C@@H](CC(N)=O)C(=O)N[C@@H]([C@@H](C)O)C(=O)N[C@@H](C)C(=O)N[C@@H]([C@@H](C)O)C(=O)N1)[C@@H](C)O)C(C)C)C(=O)N[C@@H](Cc1ccc(O)cc1)C(=O)N[C@@H](CCC(N)=O)C(=O)N[C@@H](Cc1ccccc1)C(=O)N[C@H](C(=O)N[C@@H](CC(=O)O)C(=O)N[C@@H](CCCCN)C(=O)N[C@@H](CC(=O)O)C(=O)N[C@@H](CCCCN)C(=O)N[C@@H](CC(=O)O)C(=O)N[C@@H](CC(N)=O)C(=O)N[C@H](C(=O)N[C@@H](C)C(=O)N1CCC[C@H]1C(=O)N[C@@H](CCCNC(=N)N)C(=O)N[C@H](C(=O)N[C@@H](CCCCN)C(=O)N[C@H](C(=O)NCC(=O)N[C@@H](CO)C(=O)N[C@@H](CC(N)=O)C(=O)NCC(=O)N1C[C@H](O)C[C@H]1C(N)=O)C(C)C)[C@@H](C)O)C(C)C)[C@@H](C)O [compound 248] (H-KCNTATCTVQ[Cit]LAHQIYQFTDKDKDNVAPRTKVGSNG[Hyp]-NH2; disulfide 2-7; N-terminus assumed)
